One assay concerns CD8 positive cells. The experiment in a line: intracellular interferon γ staining (flow cytometry). Type of assay: cell-based, human. Set-up: key: ++ refers to a sample found to produce interferon γ in 3/3; + refers to a sample found to produce interferon γ in ⅓ to ⅔. As to conditions: 5×10^5 lymphocytes, peptide 1 μg/ml, 4 hours. The procedure:
(§1) Peripheral blood of healthy individuals with the same HLA-A*02:01 as the subject sample (tumor patient) was used. An experiment of reactivity was conducted using peptides that were manufactured therefor.
The obtained samples were subjected to intracellular interferon γ staining. 5×10^5 lymphocytes were stimulated and cultured for 4 hours in a 200 μl medium. Neoantigen peptides and control peptides were added so that the final concentration was 1 μg/ml for stimulation. An unstimulated control was also prepared. BioLegend Brefeldin A Solution (1,000×) was added so that the final concentration would be 5.0 μg/ml during stimulation. After the completion of culturing, the cells were collected and stained for 30 minutes at 4° C. with Fixable Viability Dye eFluor780 (eBioscience 65-0865-18), FITC labeled anti-CD4 antibody (BD Pharmingen™557307), ECD labeled anti-CD8 antibody (BECKMAN COULTER 41116015) and PerCP-CY5.5 labeled anti-CD3 antibody (Biolegend 300430).
The cells were treated for 15 minutes with Intraprep permeabilization reagent (Immunotech, Marseille, France). The cells were stained for 15 minutes with PE labeled anti-IL-2 antibody (BD Pharmingen™559334), Alexa700 labeled anti-TNFα antibody (BD Pharmingen™557996), and Pacific Blue labeled anti-IFN-γ antibody (Biolegend 502522)
After suspension into PBS containing 0.5% PFA, measurement was taken with Gallios flow cytometer (BECKMAN COULTER). For intracellular flow cytometry sorting, CD8 positive cells were used to analyze the production of interferon γ.
Background: Flow cytometry measures light scatter and fluorescence of single cells or particles in a stream.

Assay [1] relates to peripheral blood of healthy individuals with HLA-A*02:01. Description: interferon γ ELISPOT assay. Type of assay: cell-based, human. Set-up: key: ++ refers to a sample found to produce interferon γ in 3/3; + refers to a sample found to produce interferon γ in ⅓ to ⅔. As to conditions: 1×10^5 cells stimulated 16 hours; HLA-A*02:01 healthy donor peripheral blood. The procedure: as §1
The conducted assay performed interferon γ ELISPOT and intracellular interferon γ staining. For the interferon γ ELISPOT, MABTECH anti-human IFN-γ mAb 1-D1K, purified (3420-3-250) was used as a capture antibody. In addition, MILLIPORE MultiScreen HTS 96-well Filtration Plate was used.
Briefly stated, the following was performed. • (1) Cytokine (interferon-γ in this example) specific monoclonal antibodies (MABTECH anti-human IFN-γ mAb 1-D1K, purified (3420-3-250)) were immobilized on the solid layer surface. MILLIPORE MultiScreen HTS 96-well Filtration Plate was used in this example. • (2) 1×10^5 cells were stimulated and cultured for 16 hours after washing. The secreted cytokines, i.e., interferon-γ, were bound to capture antibodies (Detection antibody; MABTECH anti-human IFN-γ mAb 7-B6-1, biotinylated (3420-6-250)) that were around the producing cells. After removing the cells by washing, anti-interferon γ antibodies for detection were added.
For biotin labeled detection antibodies, enzyme labeled streptavidin (MABTECH Streptavidin-HRP (3310-9)) was added. • (3) Next, BD ELISPOT AEC Substrate Set (551951) was used for coloration. This method allows the spot corresponding to the position where interferon γ (cytokine) producing cell was located to be seen. The obtained spots were counted with a Carl Zeiss KS ELISPOT (Minerva Tech). The frequency of positive cells was recorded. (Intracellular Interferon γ Staining)

For the substance NISSRIHTV [pepID 33], the “IFNγ secretion Intra” value in the assay with CD8 positive cells is “++”. The “IFNγ secretion ELISPOT” value in assay [1] is reported as “+”. With 18 (ICFLALECLAH) [compound 18], the “IFNγ secretion ELISPOT” value in assay [1] was “++”.

30 (ALYPFEFRS) [compound 30]: the “IFNγ secretion Intra” value with CD8 positive cells is “+”.

Consider 27 (KVLQLLEPEI) [compound 27], for which the “IFNγ secretion Intra” value with CD8 positive cells was “+”. As to 43 (FQYSSPALPT) [compound 43], the “IFNγ secretion ELISPOT” value in assay [1] is “++”. Regarding 36 (ILQEYREDFV) [compound 36], the “IFNγ secretion Intra” value in the assay on CD8 positive cells is recorded as “+”. With 12 (NLKKLLVF) [compound 12], the “IFNγ secretion ELISPOT” value in assay [1] is given as “++”. For the substance 7 (VLNINDNEPV) [compound 7], the “IFNγ secretion Intra” value with CD8 positive cells was “++”. Regarding FLALECLAHL [pepID 14], the “IFNγ secretion Intra” value in the assay on CD8 positive cells is recorded as “++”. In addition, the “IFNγ secretion ELISPOT” value in assay [1] is on record as “++”.

Take 21 (QLLEPEISFL) [compound 21]: the “IFNγ secretion Intra” value with CD8 positive cells is “++”. Turning to FTYSSALKV [pepID 41], the “IFNγ secretion Intra” value in the assay with CD8 positive cells is “++”. The “IFNγ secretion ELISPOT” value in assay [1] is reported as “++”. As to 42 (KTFTYSSAL) [compound 42], the “IFNγ secretion ELISPOT” value in assay [1] was “++”.

The record behind these values is patent US12065699B2, “Monitoring and diagnosis for immunotherapy, and design for therapeutic agent” (Repertoire Genesis Incorporation, priority 2016, dated 2024).
